Patent US20070021434A1, “NON-NUCLEOSIDE ANTI-HEPACIVIRUS AGENTS AND USES THEREOF” (Migenix Inc., priority 2005, published 2007)

Molecular target: HCV RdRp (NS5B) (UniProt P26663)
Assay type: biochemical, hepatitis C virus

HCV RdRp (NS5B), sequence (P26663 whole entry, looked up): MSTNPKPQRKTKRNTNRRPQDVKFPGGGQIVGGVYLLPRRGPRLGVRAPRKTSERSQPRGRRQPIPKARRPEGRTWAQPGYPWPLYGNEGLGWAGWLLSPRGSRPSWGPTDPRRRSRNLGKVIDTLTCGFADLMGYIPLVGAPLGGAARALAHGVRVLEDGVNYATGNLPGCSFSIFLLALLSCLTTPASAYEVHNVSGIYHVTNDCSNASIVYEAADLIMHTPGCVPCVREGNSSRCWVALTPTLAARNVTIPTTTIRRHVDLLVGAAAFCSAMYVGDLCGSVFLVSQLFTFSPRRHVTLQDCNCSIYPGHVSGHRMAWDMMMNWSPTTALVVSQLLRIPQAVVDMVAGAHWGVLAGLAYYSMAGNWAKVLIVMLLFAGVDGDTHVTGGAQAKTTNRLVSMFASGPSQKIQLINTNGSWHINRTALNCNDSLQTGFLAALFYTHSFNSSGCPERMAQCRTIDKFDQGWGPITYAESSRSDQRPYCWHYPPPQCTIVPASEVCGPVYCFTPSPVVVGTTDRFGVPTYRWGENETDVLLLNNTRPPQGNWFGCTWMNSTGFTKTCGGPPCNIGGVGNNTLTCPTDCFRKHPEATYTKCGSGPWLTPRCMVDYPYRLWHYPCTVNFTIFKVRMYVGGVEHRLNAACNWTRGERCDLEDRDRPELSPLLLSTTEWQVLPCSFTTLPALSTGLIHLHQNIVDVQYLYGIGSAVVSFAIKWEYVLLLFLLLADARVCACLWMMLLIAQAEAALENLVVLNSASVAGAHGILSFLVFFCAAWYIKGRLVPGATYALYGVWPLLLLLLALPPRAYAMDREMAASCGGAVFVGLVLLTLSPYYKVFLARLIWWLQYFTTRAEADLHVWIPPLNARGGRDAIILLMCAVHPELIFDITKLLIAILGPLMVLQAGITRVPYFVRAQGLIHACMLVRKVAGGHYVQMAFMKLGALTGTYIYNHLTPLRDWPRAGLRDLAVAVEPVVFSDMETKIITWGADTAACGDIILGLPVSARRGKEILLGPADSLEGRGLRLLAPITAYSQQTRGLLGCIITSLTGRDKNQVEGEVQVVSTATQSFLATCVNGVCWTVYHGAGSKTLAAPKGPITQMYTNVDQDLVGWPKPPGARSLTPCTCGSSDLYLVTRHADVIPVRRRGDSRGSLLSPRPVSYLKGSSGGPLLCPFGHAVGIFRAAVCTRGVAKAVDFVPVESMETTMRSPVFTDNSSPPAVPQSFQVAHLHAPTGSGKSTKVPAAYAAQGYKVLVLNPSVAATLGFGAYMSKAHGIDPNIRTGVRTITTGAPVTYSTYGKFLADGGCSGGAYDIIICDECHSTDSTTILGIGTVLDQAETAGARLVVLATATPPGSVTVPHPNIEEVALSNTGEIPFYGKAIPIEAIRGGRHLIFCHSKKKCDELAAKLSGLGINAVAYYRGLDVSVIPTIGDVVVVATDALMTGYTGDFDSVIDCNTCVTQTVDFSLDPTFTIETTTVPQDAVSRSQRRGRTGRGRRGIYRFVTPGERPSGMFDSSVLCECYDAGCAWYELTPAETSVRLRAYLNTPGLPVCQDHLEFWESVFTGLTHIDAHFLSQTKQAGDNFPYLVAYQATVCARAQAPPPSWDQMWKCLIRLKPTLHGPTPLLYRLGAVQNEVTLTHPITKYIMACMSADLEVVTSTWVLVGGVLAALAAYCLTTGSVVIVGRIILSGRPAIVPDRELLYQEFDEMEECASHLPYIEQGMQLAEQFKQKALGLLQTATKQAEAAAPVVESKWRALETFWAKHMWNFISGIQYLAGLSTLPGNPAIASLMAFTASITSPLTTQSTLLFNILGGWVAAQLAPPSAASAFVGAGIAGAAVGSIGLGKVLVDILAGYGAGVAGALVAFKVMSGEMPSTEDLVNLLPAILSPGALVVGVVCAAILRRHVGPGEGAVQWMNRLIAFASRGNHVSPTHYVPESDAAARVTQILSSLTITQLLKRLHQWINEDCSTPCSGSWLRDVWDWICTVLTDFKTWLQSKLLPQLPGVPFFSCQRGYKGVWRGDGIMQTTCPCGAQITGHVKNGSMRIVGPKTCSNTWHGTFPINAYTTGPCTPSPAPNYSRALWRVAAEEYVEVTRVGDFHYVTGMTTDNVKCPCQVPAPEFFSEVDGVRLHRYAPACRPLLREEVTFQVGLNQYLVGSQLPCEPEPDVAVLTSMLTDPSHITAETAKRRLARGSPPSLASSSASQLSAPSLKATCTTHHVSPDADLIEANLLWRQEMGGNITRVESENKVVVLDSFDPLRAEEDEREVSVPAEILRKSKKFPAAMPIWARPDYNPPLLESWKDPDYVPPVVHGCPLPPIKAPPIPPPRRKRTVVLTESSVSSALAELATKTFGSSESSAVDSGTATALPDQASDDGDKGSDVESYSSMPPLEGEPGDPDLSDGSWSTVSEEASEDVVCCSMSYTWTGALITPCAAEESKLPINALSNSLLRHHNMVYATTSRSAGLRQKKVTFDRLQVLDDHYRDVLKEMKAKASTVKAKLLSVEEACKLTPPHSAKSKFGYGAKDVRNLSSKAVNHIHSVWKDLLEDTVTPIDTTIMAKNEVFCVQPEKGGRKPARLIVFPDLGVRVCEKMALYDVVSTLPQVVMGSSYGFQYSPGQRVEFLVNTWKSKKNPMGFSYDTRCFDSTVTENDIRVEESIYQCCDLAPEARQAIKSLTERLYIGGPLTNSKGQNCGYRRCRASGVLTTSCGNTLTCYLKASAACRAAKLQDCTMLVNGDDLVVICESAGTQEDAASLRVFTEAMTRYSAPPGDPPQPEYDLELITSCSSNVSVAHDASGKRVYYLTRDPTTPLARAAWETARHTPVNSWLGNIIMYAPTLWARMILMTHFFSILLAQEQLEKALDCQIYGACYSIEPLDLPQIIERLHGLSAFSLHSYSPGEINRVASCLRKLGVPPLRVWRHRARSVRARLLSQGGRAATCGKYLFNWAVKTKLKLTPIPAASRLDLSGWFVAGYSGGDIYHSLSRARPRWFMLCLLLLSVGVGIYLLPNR

SMILES | IC50
NCCCC[C@H](NC(=O)[C@@H](N)Cc1c[nH]c2ccccc12)C(=O)Nc1ccc(CN(C(=O)c2ccco2)C2CCCCC2)cc1 [Compound 23, (S)-FURAN-2-CARBOXYLIC ACID (4-{6-AMINO-2-[2-(S)-AMINO-3-(1H-INDOL-3-YL)-PROPIONYLAMINO]-HEXANOYLAMINO}-BENZYL)-CYCLOHEXYL-AMIDE] | 10 to 50 µM
Cc1cc2cc(NC(=O)[C@H](CCCCNC(=O)CN)NC(=O)Nc3ccc(OCc4ccccc4)cc3)ccc2[nH]1 [Compound 239, (S)-6-(2-AMINO-ACETYLAMINO)-2-[3-(4-BENZYLOXY-PHENYL)-UREIDO]-HEXANOIC ACID (2-METHYL-1H-INDOL-5-YL)-AMIDE] | < 10 µM
Cc1ccc(NC(=O)NC(CCCCN)C(=O)Nc2ccc(C)cc2)cc1 [Compound 135, (S)-6-AMINO-2-(3-P-TOLYL-UREIDO)-HEXANOIC ACID P-TOLYLAMIDE] | > 50 µM
NCCCC[C@H](N)C(=O)Nc1ccc(CN(C(=O)c2ccco2)C2CCCCC2)cc1 [Compound 7, (S)-FURAN-2-CARBOXYLIC ACID CYCLOHEXYL-[4-(2,6-DIAMINO-HEXANOYLAMINO)-BENZYL]-AMIDE] | > 50 µM
Cc1ccc(NC(=O)C(CCCCN)NC(=O)Nc2ccc(C(=O)c3ccccc3)cc2)cc1 [Compound 75, (S)-6-AMINO-2-[3-(4-BENZOYL-PHENYL)-UREIDO]-HEXANOIC ACID P-TOLYLAMIDE] | > 50 µM
Cc1ccc(NC(=O)[C@H](CCCCN)NC(=O)Nc2cccc(Br)c2)cc1 [Compound 118, (S)-6-AMINO-2-[3-(3-BROMO-PHENYL)-UREIDO]-HEXANOIC ACID P-TOLYLAMIDE] | > 50 µM
NCCCC[C@H](NC(=O)OCC1c2ccccc2-c2ccccc21)C(=O)Nc1ccc(OCc2ccccc2)c(Cl)c1 [Compound 210, (S)-[5-AMINO-1-(4-BENZYLOXY-3-CHLORO-PHENYLCARBAMOYL)-PENTYL]-CARBAMIC ACID 9H-FLUOREN-9-YLMETHYL ESTER] | < 10 µM
NCCC(=O)Nc1ccccc1NC(=O)CNC(=O)OCC1c2ccccc2-c2ccccc21 [Compound 312, {[2-(3-AMINO-PROPIONYLAMINO)-PHENYLCARBAMOYL]-METHYL}-CARBAMIC ACID 9H-FLUOREN-9-YLMETHYL ESTER] | > 50 µM
Cc1ccc(NC(=O)C(CCCCN)NC(=O)NCc2ccccc2)cc1 [Compound 133, (S)-6-AMINO-2-(3-BENZYL-UREIDO)-HEXANOIC ACID P-TOLYLAMIDE] | > 50 µM
Cc1ccc(NC(=O)C2CCCN2C(=O)OCC2c3ccccc3-c3ccccc32)cc1 [Compound 86, (R)-2-P-TOLYLCARBAMOYL-PYRROLIDINE-1-CARBOXYLIC ACID 9H-FLUOREN-9-YLMETHYL ESTER] | > 50 µM
CSCCC(NC(=O)OCC1c2ccccc2-c2ccccc21)C(=O)Nc1ccc(C)cc1 (stereo not drawn) [Compound 383] | > 50 µM
O=C(CC1CNCCN1C(=O)Nc1ccc2c(c1)Cc1ccccc1-2)Nc1ccc(C2CCCCC2)cc1 (stereo not drawn) [Compound 162, 2-[(4-CYCLOHEXYL-PHENYLCARBAMOYL)-METHYL]-PIPERAZINE-1-CARBOXYLIC ACID (9H-FLUOREN-2-YL)-AMIDE] | 10 to 50 µM
Cc1ccc(NC(=O)[C@H](CCCN)NC(=O)Nc2ccc3c(c2)Cc2ccccc2-3)cc1 [Compound 190, (S)-5-AMINO-2-[3-(9H-FLUOREN-2-YL)-UREIDO]-PENTANOIC ACID P-TOLYLAMIDE] | < 10 µM
Cc1ccc(NC(=O)CC2CN(C(=O)CCN)CCN2C(=O)OCC2c3ccccc3-c3ccccc32)cc1 (stereo not drawn) [Compound 183, 4-(3-AMINO-PROPIONYL)-2-(P-TOLYLCARBAMOYL-METHYL)-PIPERAZINE-1-CARBOXYLIC ACID 9H-FLUOREN-9-YLMETHYL ESTER] | > 50 µM
NCCCC[C@H](NC(=O)Nc1ccc(OCc2ccccc2)cc1)C(=O)Nc1ccc(-n2ccnc2)cc1 [Compound 317, (S)-6-AMINO-2-[3-(4-BENZYLOXY-PHENYL)-UREIDO]-HEXANOIC ACID (4-IMIDAZOL-1-YL-PHENYL)-AMIDE] | > 50 µM
Cc1ccc(NC(=O)C2CC(OC(=O)CN)CN2C(=O)OCC2c3ccccc3-c3ccccc32)cc1 [Compound 131, (S)-[4-(R)-(2-AMINO-ACETOXY)-2-P-TOLYLCARBAMOYL-PYRROLIDINE-1-CARBOXYLIC ACID 9H-FLUOREN-9-YLMETHYL ESTER]] | > 50 µM
Cc1ccc(NC(=O)C(CCCCN)NC(=O)c2cccc3ccccc23)cc1 (stereo not drawn) [Compound 79, NAPHTHALENE-1-CARBOXYLIC ACID (5-AMINO-1-P-TOLYLCARBAMOYL-PENTYL)-AMIDE] | > 50 µM
NCCCC[C@H](NC(=O)OCC1c2ccccc2-c2ccccc21)C(=O)Nc1ccc(CN(C(=O)c2ccco2)C2CCCCC2)cc1 [Compound 6, (S)-[5-AMINO-1-(4-{[CYCLOHEXYL-(FURAN-2-CARBONYL)-AMINO]-METHYL}-PHENYLCARBAMOYL)-PENTYL]-CARBAMIC ACID 9H-FLUOREN-9-YL METHYL ESTER] | < 10 µM
CC(C)(C)OC(=O)NCC(=O)NCc1ccccc1NC(=O)CNC(=O)OCC1c2ccccc2-c2ccccc21 [Compound 325, ({2-[2-(9H-FLUOREN-9-YLMETHOXYCARBONYLAMINO)-ACETYLAMINO]-BENZYLCARBAMOYL}-METHYL)-CARBAMIC ACID TERT-BUTYL ESTER] | > 50 µM
Cc1ccc(NC(=O)C(CCCNC(=O)CN)NC(=O)OCC2c3ccccc3-c3ccccc32)cc1 [Compound 177, (S)-[4-(2-AMINO-ACETYLAMINO)-1-P-TOLYLCARBAMOYL-BUTYL]-CARBAMIC ACID 9H-FLUOREN-9-YLMETHYL ESTER] | < 10 µM

SMILES | IC50
Cc1ccc(NC(=O)[C@H](CCCCN)NC(=O)Nc2cccc3c2CCCC3)cc1 [Compound 78, (S)-6-AMINO-2-[3-(5,6,7,8-TETRAHYDRO-NAPHTHALEN-1-YL)-UREIDO]-HEXANOIC ACID P-TOLYLAMIDE] | > 50 µM
NCCCC[C@H](NC(=O)OCC1c2ccccc2-c2ccccc21)C(=O)Nc1ccc(F)cc1 [Compound 44, (S)-[5-AMINO-1-(4-FLUORO-PHENYLCARBAMOYL)-PENTYL]-CARBAMIC ACID 9H-FLUOREN-9-YLMETHYL ESTER] | > 50 µM
Cc1ccc(NC(=O)C(CCCCN)NS(=O)(=O)c2ccc(S(=O)(=O)c3ccccc3)s2)cc1 [Compound 389, (S)-6-AMINO-2-(5-BENZENESULFONYL-THIOPHENE-2-SULFONYLAMINO)-HEXANOIC ACID P-TOLYLAMIDE] | > 50 µM
Cc1ccc(NC(=O)C(CCCCN)NC(=O)Nc2ccc(CN(C)c3ccc(C)cc3)cc2)cc1 [Compound 292, (S)-6-AMINO-2-(3-{4-[(METHYL-P-TOLYL-AMINO)-METHYL]-PHENYL}-UREIDO)-HEXANOIC ACID P-TOLYLAMIDE] | > 50 µM
Cc1ccc(NC(=O)C(Cc2cccnc2)NC(=O)OCC2c3ccccc3-c3ccccc32)cc1 [Compound 385, (S)-(2-PYRIDIN-3-YL-1-P-TOLYLCARBAMOYL-ETHYL)-CARBAMIC ACID 9H-FLUOREN-9-YLMETHYL ESTER] | > 50 µM
O=C(Nc1ccc(C2CCCCC2)cc1)C1CN(C(=O)OCC2c3ccccc3-c3ccccc32)CCN1 (stereo not drawn) [Compound 157, 3-(4-CYCLOHEXYL-PHENYLCARBAMOYL)-PIPERAZINE-1-CARBOXYLIC ACID 9H-FLUOREN-9-YLMETHYL ESTER] | > 50 µM
Cc1ccc(NC(=O)[C@H](CCCCN)NC(=O)COc2ccc(Cl)cc2)cc1 [Compound 331, (S)-6-AMINO-2-[2-(4-CHLORO-PHENOXY)-ACETYLAMINO]-HEXANOIC ACID P-TOLYLAMIDE] | > 50 µM
Cc1ccc(NC(=O)C(CCCCN)NC(=O)Cc2cccc3ccccc23)cc1 [Compound 91, (S)-6-AMINO-2-(2-NAPHTHALEN-1-YL-ACETYLAMINO)-HEXANOIC ACID P-TOLYLAMIDE] | > 50 µM
NCCC[C@@H](NC(=O)Nc1ccc(OCc2ccccc2)cc1)C(=O)Nc1ccc(C2CCCCC2)cc1 [Compound 202, (R)-5-AMINO-2-[3-(4-BENZYLOXY-PHENYL)-UREIDO]-PENTANOIC ACID (4-CYCLOHEXYL-PHENYL)-AMIDE] | < 10 µM
NCc1ccc(NC(=O)[C@@H](NC(=O)OCC2c3ccccc3-c3ccccc32)c2ccccc2)cc1 [Compound 315, (S)-[(4-AMINOMETHYL-PHENYLCARBAMOYL)-PHENYL-METHYL]-CARBAMIC ACID 9H-FLUOREN-9-YLMETHYL ESTER] | 10 to 50 µM
Cc1ccc(NC(=O)[C@H](CCCCN)NC(=O)CNCc2ccccc2)cc1 [Compound 337, (S)-6-AMINO-2-(2-BENZYLAMINO-ACETYLAMINO)-HEXANOIC ACID P-TOLYLAMIDE] | > 50 µM
NCCCC[C@H](NC(=O)OCC1c2ccccc2-c2ccccc21)C(=O)N(Cc1ccccc1)C1CCCCC1 [Compound 33, (S)-[5-AMINO-1-(BENZYL-CYCLOHEXYL-CARBAMOYL)-PENTYL]-CARBAMIC ACID 9H-FLUOREN-9-YLMETHYL ESTER] | 10 to 50 µM
Cc1ccc(NC(=O)[C@H](CCCCN)NS(=O)(=O)c2cc(Cl)cc(Cl)c2)cc1 [Compound 394, (S)-6-AMINO-2-(3,5-DICHLORO-BENZENESULFONYLAMINO)-HEXANOIC ACID P-TOLYLAMIDE] | > 50 µM
Cc1ccc(NC(=O)C(CCCN)NC(=O)Nc2ccc(-c3ccccc3)cc2)cc1 [Compound 191, (R)-5-AMINO-2-(3-BIPHENYL-4-YL-UREIDO)-PENTANOIC ACID P-TOLYLAMIDE] | > 50 µM
COc1ccc(-c2ccccc2)cc1NC(=O)NC(CCCCN)C(=O)Nc1ccc(C)cc1 [Compound 93, (S)-6-AMINO-2-[3-(4-METHOXY-BIPHENYL-3-YL)-UREIDO]-HEXANOIC ACID P-TOLYLAMIDE] | > 50 µM
Cc1ccc(NC(=O)C2CCCCN2C(=O)OCC2c3ccccc3-c3ccccc32)cc1 [Compound 122, (S)-2-P-TOLYLCARBAMOYL-PIPERIDINE-1-CARBOXYLIC ACID 9H-FLUOREN-9-YLMETHYL ESTER] | > 50 µM
Cc1ccc(NC(=O)[C@H](CCCCN)NC(=O)CNc2cccc(C)c2)cc1 [Compound 355, (S)-6-AMINO-2-(2-M-TOLYLAMINO-ACETYLAMINO)-HEXANOIC ACID P-TOLYLAMIDE] | > 50 µM
Cc1ccc(NC(=O)[C@H](CCCCN)NC(=O)CNc2ccc(Cl)cc2)cc1 [Compound 363, (S)-6-AMINO-2-[2-(4-CHLORO-PHENYLAMINO)-ACETYLAMINO]-HEXANOIC ACID P-TOLYLAMIDE] | > 50 µM
CC(C)(C)Oc1ccc(C[C@H](N)C(=O)Nc2ccc(CN(C(=O)c3ccco3)C3CCCCC3)cc2)cc1 [Compound 8, (S)-FURAN-2-CARBOXYLIC ACID {4-[2-AMINO-3-(4-TERT-BUTOXY-PHENYL)-PROPIONYLAMINO]-BENZYL}-CYCLOHEXYL-AMIDE] | > 50 µM
